Reference: article PMC12155096 (International Journal of Molecular Sciences, 2025)
Where two headings read alike, the source gives them in different places.

Columns and labels:
[1] = biological target: T1, human CYP2C19 (Homo sapiens, UniProt P33261)
[2] = biological target: T2, human CYP1A2 (Homo sapiens, UniProt P05177); assay: biochemical
T2 sequence (P05177 1-516): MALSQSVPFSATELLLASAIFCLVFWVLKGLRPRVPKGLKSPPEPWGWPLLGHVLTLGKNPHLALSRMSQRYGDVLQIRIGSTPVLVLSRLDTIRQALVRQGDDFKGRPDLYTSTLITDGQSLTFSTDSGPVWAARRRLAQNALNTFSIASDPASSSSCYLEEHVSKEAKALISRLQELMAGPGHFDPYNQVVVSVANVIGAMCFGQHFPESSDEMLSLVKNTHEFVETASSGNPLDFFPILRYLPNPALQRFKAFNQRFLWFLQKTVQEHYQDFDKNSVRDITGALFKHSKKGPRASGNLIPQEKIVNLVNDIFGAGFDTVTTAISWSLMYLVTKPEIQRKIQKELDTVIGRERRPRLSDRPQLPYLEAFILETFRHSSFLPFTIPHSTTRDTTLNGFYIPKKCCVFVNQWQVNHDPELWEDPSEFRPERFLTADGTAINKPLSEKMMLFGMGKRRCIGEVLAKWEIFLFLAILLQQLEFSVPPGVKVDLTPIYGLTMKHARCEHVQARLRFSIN

[3] = biological target: human CYP2D6 (Homo sapiens, UniProt P10635)
Chain of human CYP2D6 (P10635 whole entry): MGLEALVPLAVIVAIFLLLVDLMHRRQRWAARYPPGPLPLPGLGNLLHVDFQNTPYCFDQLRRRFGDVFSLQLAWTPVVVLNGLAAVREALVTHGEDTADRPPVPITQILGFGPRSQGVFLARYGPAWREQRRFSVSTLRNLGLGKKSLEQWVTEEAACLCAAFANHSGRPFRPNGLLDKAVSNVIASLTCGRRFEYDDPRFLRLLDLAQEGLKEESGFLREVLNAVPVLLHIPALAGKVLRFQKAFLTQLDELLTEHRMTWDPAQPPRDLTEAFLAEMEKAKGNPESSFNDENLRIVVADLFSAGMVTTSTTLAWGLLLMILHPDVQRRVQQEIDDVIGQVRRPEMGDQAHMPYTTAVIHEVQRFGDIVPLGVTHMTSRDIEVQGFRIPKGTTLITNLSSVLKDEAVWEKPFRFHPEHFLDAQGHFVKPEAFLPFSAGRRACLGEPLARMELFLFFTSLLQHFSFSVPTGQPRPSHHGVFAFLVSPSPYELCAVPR

[4] = biological target: CYP3A4 (Homo sapiens, UniProt P08684)
Chain of CYP3A4 (P08684 whole entry): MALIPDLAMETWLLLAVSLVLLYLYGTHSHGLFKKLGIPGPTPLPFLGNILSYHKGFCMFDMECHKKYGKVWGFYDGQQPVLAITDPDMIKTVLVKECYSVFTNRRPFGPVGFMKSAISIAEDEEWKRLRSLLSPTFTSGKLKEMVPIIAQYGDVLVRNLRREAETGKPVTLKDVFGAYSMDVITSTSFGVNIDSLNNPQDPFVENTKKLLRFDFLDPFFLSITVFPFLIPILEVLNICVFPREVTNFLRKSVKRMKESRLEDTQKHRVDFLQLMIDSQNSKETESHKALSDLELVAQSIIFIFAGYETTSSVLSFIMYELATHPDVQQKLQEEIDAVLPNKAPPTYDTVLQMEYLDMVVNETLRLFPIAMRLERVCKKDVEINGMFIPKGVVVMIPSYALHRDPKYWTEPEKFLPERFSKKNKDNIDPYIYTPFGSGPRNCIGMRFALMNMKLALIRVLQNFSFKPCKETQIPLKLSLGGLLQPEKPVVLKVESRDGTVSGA

[5] = biological target: T3, human CYP2C9 (Homo sapiens, UniProt P11712); assay: biochemical
T3 sequence (P11712 whole entry): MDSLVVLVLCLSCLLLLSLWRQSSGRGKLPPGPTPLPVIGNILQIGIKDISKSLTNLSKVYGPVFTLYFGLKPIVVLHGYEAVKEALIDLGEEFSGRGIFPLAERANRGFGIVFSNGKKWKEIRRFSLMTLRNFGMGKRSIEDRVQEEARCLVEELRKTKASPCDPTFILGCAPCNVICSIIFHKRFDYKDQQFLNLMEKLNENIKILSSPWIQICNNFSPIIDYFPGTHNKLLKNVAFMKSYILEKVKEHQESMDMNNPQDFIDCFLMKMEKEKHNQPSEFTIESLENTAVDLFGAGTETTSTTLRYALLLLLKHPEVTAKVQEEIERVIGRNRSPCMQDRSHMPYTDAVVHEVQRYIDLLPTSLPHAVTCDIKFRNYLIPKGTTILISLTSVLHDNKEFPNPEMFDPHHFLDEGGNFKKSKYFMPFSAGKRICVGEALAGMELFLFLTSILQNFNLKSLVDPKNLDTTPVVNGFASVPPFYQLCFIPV

[6] = biological target: T1, human CYP2C19; assay: biochemical
[7] = biological target: T2, human CYP1A2
[8] = biological target: T3, human CYP2C9
[9] = CYP1A2 AC50 (half-maximal activity concentration)
[10] = CYP2C9 AC50 (half-maximal activity concentration)

T1 sequence (P33261 whole entry): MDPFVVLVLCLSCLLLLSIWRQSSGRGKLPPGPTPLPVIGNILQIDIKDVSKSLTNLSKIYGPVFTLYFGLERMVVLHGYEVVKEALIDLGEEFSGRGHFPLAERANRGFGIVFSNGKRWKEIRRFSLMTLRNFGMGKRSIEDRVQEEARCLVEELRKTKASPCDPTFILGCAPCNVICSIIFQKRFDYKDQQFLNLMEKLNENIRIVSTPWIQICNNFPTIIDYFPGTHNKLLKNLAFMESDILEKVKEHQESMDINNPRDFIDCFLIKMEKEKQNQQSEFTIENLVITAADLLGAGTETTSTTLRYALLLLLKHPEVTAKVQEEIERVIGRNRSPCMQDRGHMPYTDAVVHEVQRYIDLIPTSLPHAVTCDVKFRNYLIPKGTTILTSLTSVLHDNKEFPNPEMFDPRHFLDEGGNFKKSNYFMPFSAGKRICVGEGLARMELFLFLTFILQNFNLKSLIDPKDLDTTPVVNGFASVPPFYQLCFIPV

Oc1cc(Cl)c(Cl)cc1Cl [2,4,5-Trichlorophenol]
CYP2C19 AC50 (half-maximal activity concentration) [1]: Inconclusive inhibitor
AC50 [2, 9]: 20.8 µM
CYP2D6 AC50 (half-maximal activity concentration) [3]: Inactive
CYP3A4 AC50 (half-maximal activity concentration) [4]: Inactive
AC50 [5, 10]: 22.4 µM

Oc1cc(Cl)ccc1Cl [2,5-Dichlorophenol]
CYP2C19 AC50 (half-maximal activity concentration) [1]: Inconclusive inhibitor
AC50 [2, 9]: 33.9 µM
CYP2D6 AC50 (half-maximal activity concentration) [3]: Inactive
CYP3A4 AC50 (half-maximal activity concentration) [4]: Inactive
AC50 [5, 10]: 32.8 µM

CCOc1ccccc1C(N)=O [2-Ethoxybenzamide]
CYP2C19 AC50 (half-maximal activity concentration) [1]: Inactive
AC50 [2]: 16.8 ± 1.09 µM
CYP2D6 AC50 (half-maximal activity concentration) [3]: Inactive
CYP3A4 AC50 (half-maximal activity concentration) [4]: Inactive
AC50 [5]: 31 ± 3.57 µM

COc1cccc(O)c1 [3-Methoxyphenol]
CYP2C19 AC50 (half-maximal activity concentration) [1]: Inactive
AC50 [2]: 49.3 µM
CYP2D6 AC50 (half-maximal activity concentration) [3]: Inactive
CYP3A4 AC50 (half-maximal activity concentration) [4]: Inactive
AC50 [5]: 40.4 µM

CC(C)(C)c1cccc(O)c1 [3-tert-Butylphenol]
CYP2D6 AC50 (half-maximal activity concentration) [3]: Inactive
CYP3A4 AC50 (half-maximal activity concentration) [4]: Inactive
AC50 [6]: 23.9 µM
CYP1A2 AC50 (half-maximal activity concentration) [7]: Inconclusive inhibitor
CYP2C9 AC50 (half-maximal activity concentration) [8]: Inconclusive inhibitor

Cc1cc(O)cc(C)c1Cl [4-Chloro-3,5-dimethylphenol]
CYP2C19 AC50 (half-maximal activity concentration) [1]: Inconclusive inhibitor
AC50 [2, 9]: 14.2 µM
CYP2D6 AC50 (half-maximal activity concentration) [3]: Inactive
CYP3A4 AC50 (half-maximal activity concentration) [4]: Inactive
AC50 [5, 10]: 17.4 µM

Cc1cc(=O)oc2cc(O)ccc12 [4-Methylumbelliferone]
CYP2C19 AC50 (half-maximal activity concentration) [1]: Inactive
AC50 [2, 9]: 28.6 µM
CYP2D6 AC50 (half-maximal activity concentration) [3]: Inactive
CYP3A4 AC50 (half-maximal activity concentration) [4]: Inactive
AC50 [5, 10]: 14.6 µM

O=C(CCC1CCN(Cc2ccccc2)CC1)c1ccc2c(c1)NCCCC2.O=C(O)/C=C/C(=O)O [Zanapezil fumerate]
CYP2C19 AC50 (half-maximal activity concentration) [1]: Inactive
AC50 [3]: 7.12 µM
AC50 [4]: 3.4 µM
CYP1A2 AC50 (half-maximal activity concentration) [7]: Inconclusive inhibitor
CYP2C9 AC50 (half-maximal activity concentration) [8]: Inconclusive inhibitor

C[C@H](CSC(=O)c1ccccc1)C(=O)N1C[C@@H](Sc2ccccc2)C[C@H]1C(=O)O [Zofenopril]
CYP2D6 AC50 (half-maximal activity concentration) [3]: Inactive
CYP3A4 AC50 (half-maximal activity concentration) [4]: Inactive
AC50 ([6]; CYP2C19 AC50 (half-maximal activity concentration)): 1.71 µM
CYP1A2 AC50 (half-maximal activity concentration) [7]: Inactive
CYP2C9 AC50 (half-maximal activity concentration) [8]: Inactive

CCCCC/C(=C\c1ccccc1)CO [alpha-Amylcinnamyl alcohol]
AC50 [1]: 1.66 µM
CYP2D6 AC50 (half-maximal activity concentration) [3]: Inconclusive inhibitor
AC50 [4]: 13.7 µM
AC50 [7]: 3.72 µM
AC50 [8]: 36.6 µM

CC1(C)[C@H](C(=O)OCc2cccc(Oc3ccccc3)c2)[C@@H]1C=C(Cl)Cl [cis-Permethrin in cyclohexane]
CYP2C19 AC50 (half-maximal activity concentration) [1]: Inactive
CYP2D6 AC50 (half-maximal activity concentration) [3]: Inactive
CYP3A4 AC50 (half-maximal activity concentration) [4]: Inactive
CYP1A2 AC50 (half-maximal activity concentration) [7]: Inactive
CYP2C9 AC50 (half-maximal activity concentration) [8]: Inactive

CC(C)(C)c1ccc(OP(=O)(Oc2ccccc2)Oc2ccccc2)cc1 [tert-Butylphenyl diphenyl phosphate]
AC50 [1]: 5.26 µM
CYP2D6 AC50 (half-maximal activity concentration) [3]: Inactive
AC50 [4]: 8.02 µM
AC50 [7]: 18 µM
AC50 [8]: 5.93 µM

Mancozeb
AC50 [1]: 4.72 µM
CYP2D6 AC50 (half-maximal activity concentration) [3]: Inconclusive inhibitor
AC50 [4]: 5.17 µM
AC50 [7]: 14.9 µM
AC50 [8]: 3.48 µM

Naphthenic acids
AC50 [1]: 46.4 µM
CYP2D6 AC50 (half-maximal activity concentration) [3]: Inactive
AC50 [4]: 84.8 µM
AC50 [7]: 59.4 µM
AC50 [8]: 36.4 µM
